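Following 48 hours of exposure in 96-well plates, responses at five concentrations were used to interpolate endpoints linearly. GI50 = concentration required for 50% inhibition of growth.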 Calls of active or inactive are those of the source. No stated cut-off is given here; in the data, active = GI50 up to about 1.1 µM and inactive = higher.
Key:
Experiment in all cases: NCI-60 cell line screen, 48 h
[1] = system: M14
[2] = system: IGROV-1
[3] = system: HL-60
[4] = system: HCT-116
[5] = system: EKVX
[6] = system: MCF7
[7] = system: OVCAR-5
[8] = system: Malme-3M
[9] = system: SK-MEL-28
[10] = system: MDA-MB-435
[11] = system: T47D
[12] = system: MOLT-4
[13] = system: BT-549
[14] = system: U-251
[15] = system: KM12
[16] = system: NCI-H522
[17] = system: DU-145
[18] = system: SF-268
[19] = system: CAKI-1

Measured: GI50

COc1cccc(C2c3cc4c(cc3OC(C)(O)C2C)OCO4)c1O (stereo unspecified)
inactive: [1] 3.48 µM | [2] 5.2 µM | [3] 2.82 µM | [4] 3.64 µM | [5] 13.6 µM | [6] 4.25 µM | [7] 8.09 µM | [8] 6.18 µM | [9] 10.5 µM | [10] 1.42 µM | [11] 3.82 µM | [12] 5.25 µM | [13] 9.71 µM | [14] 3.83 µM | [15] 3.33 µM | [16] 2.27 µM | [17] 4.48 µM | [18] 8.79 µM

CC(=O)OC(OC(C)=O)c1ccc2ccc3cccc4ccc1c2c34
inactive: [1] 24.8 µM | [2] 21.7 µM | [3] 9.38 µM | [4] 22.4 µM | [5] 27.4 µM | [6] 23.6 µM | [7] 20 µM | [8] 12.3 µM | [10] 18.9 µM | [11] 22.9 µM | [12] 39.4 µM | [13] 25.1 µM | [19] 9.04 µM | [14] 14.3 µM | [15] 9.77 µM | [17] 21 µM | [18] 28 µM

Nc1nc(O)c2ncn([C@H]3CC[C@@H](CO)O3)c2n1
inactive: [1] > 100 µM | [2] > 100 µM | [4] > 100 µM | [6] > 100 µM | [7] > 100 µM | [8] > 100 µM | [9] > 100 µM | [10] > 100 µM | [11] > 100 µM | [12] > 100 µM | [13] > 100 µM | [19] > 100 µM | [14] > 100 µM | [15] > 100 µM | [17] > 100 µM

COC(=O)C(C(=O)C(=O)Nc1c(C)cccc1C(C)(C)C)c1nc2ccc(Cl)cc2nc1O (stereo unspecified)
inactive: [1] > 100 µM | [2] 25.8 µM | [4] > 100 µM | [5] 49.8 µM | [6] > 100 µM | [7] > 100 µM | [8] > 100 µM | [9] > 100 µM | [10] > 100 µM | [11] > 100 µM | [12] > 100 µM | [13] > 100 µM | [19] > 100 µM | [14] > 100 µM | [15] > 100 µM | [16] 94.2 µM | [18] > 100 µM

Cn1ccc(C(=O)NCCOCCNC(=O)c2ccn(C)c(=O)c2O)c(O)c1=O
inactive: [4] > 100 µM | [8] > 100 µM | [9] > 100 µM | [10] > 100 µM | [11] > 100 µM | [13] > 100 µM | [19] > 100 µM | [14] > 100 µM | [15] 18.2 µM | [16] > 100 µM | [17] > 100 µM | [18] > 100 µM

COc1ccc(/C=C2/SC(c3ccc(Cl)cc3)N(NC(=O)CCCCCCCCC(=O)NN3C(=O)/C(=C\c4ccc(OC)c(OC)c4)SC3c3ccc(Cl)cc3)C2=O)cc1OC (stereo unspecified)
inactive: [1] 44.1 µM | [2] 12.9 µM | [4] 30.6 µM | [5] 23.6 µM | [6] > 100 µM | [7] 87.1 µM | [9] 83 µM | [10] 42 µM | [11] > 100 µM | [12] 47.5 µM | [13] > 100 µM | [19] 47.1 µM | [14] > 100 µM | [15] 55.3 µM | [17] > 100 µM | [18] 50 µM

CC(=O)O[C@H]1[C@@H](N2CCN(C)CC2)C[C@H]2[C@@H]3CC=C4C[C@@H](N5CCCC5)CC[C@]4(C)[C@H]3CC[C@@]21C
inactive: [1] 17.8 µM | [2] 68.4 µM | [3] 11.2 µM | [4] 16.9 µM | [5] 74.5 µM | [6] > 100 µM | [7] 34.5 µM | [8] 26.1 µM | [9] 28.1 µM | [10] 24.6 µM | [11] > 100 µM | [12] 15.6 µM | [13] > 100 µM | [19] 49.4 µM | [14] 50 µM | [15] 22.4 µM | [16] 23.4 µM | [18] 47.6 µM

O=C(O)C12CC3(C(=O)O)CC(C(=O)O)(CC(C(=O)O)(C1)C3=O)C2=O
inactive: [1] > 100 µM | [2] > 100 µM | [4] > 100 µM | [5] > 100 µM | [6] > 100 µM | [7] > 100 µM | [8] > 100 µM | [9] > 100 µM | [10] > 100 µM | [11] > 100 µM | [12] > 100 µM | [13] > 100 µM | [19] > 100 µM | [14] > 100 µM | [15] > 100 µM | [16] > 100 µM | [17] > 100 µM | [18] > 100 µM
